Assay results from PubChem BioAssay (NCI).
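Values below derive from 48-hour exposures of cells grown in 96-well plates, with endpoints linearly interpolated between the two concentrations bracketing the appropriate inhibition level. TGI is the concentration that stops growth completely.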

What was measured:
Assay in all cases: inhibition of tumour cell growth, NCI panel, 48 h
DLD-1 colon = tested on: DLD-1 colon
TK-10 renal = tested on: TK-10 renal
CAKI-1 renal = tested on: CAKI-1 renal
KM12 colon = tested on: KM12 colon
M19-MEL melanoma = tested on: M19-MEL melanoma
DMS 273 small cell lung = tested on: DMS 273 small cell lung
OVCAR-4 ovarian = tested on: OVCAR-4 ovarian
KM20L2 colon = tested on: KM20L2 colon
DU-145 prostate = tested on: DU-145 prostate
UACC-257 melanoma = tested on: UACC-257 melanoma
MDA-MB-435 = tested on: MDA-MB-435
RXF 393 renal = tested on: RXF 393 renal

Structure (SMILES)	TGI (DLD-1 colon) [µM]	TGI (TK-10 renal) [µM]	TGI (CAKI-1 renal) [µM]	TGI (KM12 colon) [µM]	TGI (M19-MEL melanoma) [µM]	TGI (DMS 273 small cell lung) [µM]	TGI (OVCAR-4 ovarian) [µM]	TGI (KM20L2 colon) [µM]	TGI (DU-145 prostate) [µM]	TGI (UACC-257 melanoma) [µM]	TGI (MDA-MB-435) [µM]	TGI (RXF 393 renal) [µM]
C=C1C(=O)OC2(C)C3CCC(C3)C12 (configuration not stated)	> 100	85.7	99.4	> 100	> 100	> 100	> 100	> 100	–	–	–	–
Cn1ccn2c3nc4ccccc4nc3c(=O)c(C#N)c12	> 100	> 100	> 100	> 100	> 100	> 100	> 100	–	> 100	> 100	> 100	> 100
O=C(O)CCCCCOc1cccnc1/C=N/NC1=NCCN1	> 100	> 100	> 100	> 100	> 100	> 100	> 100	> 100	–	> 100	–	> 100
COc1ccccc1-c1cc(=O)c2ccccc2[nH]1	> 100	> 100	–	> 100	> 100	> 100	–	> 100	–	> 100	–	> 100
COC1=C(N=[N+]=[N-])C(=O)c2ncccc2C1=O	3.14	20.4	13.3	29.5	3.8	25.7	5.7	33	35.1	13	4.41	11.9
O=C1CSC(/C(=C\c2ccc(Cl)cc2)c2nc3ccccc3[nH]2)=N1	32.5	24.8	21.5	28.5	28.8	37.6	31.8	52.1	26.2	34.7	32.6	2.14
CCOc1ccc(/C=C(\Cl)c2ccc(OC)c(OC)c2)cc1	> 100	–	–	–	> 100	> 100	> 100	40.1	–	97.9	–	65.5
O=C1O/C(=C(\Br)c2cccc3ccccc23)c2ccccc21	> 66.7	> 51.2	–	> 55.2	> 58.5	> 54.9	30.9	> 59.5	–	> 56.1	–	> 62.8
CCCCCCCC(=O)OC(CBr)COC(=O)C(C)(C)C (configuration not stated)	> 100	> 100	> 100	> 100	> 100	> 100	> 100	> 100	–	> 100	–	> 100
O=C(Nc1nc2ccccc2n1Cc1ccccc1)NC12CC3CC(CC(C3)C1)C2	> 100	> 100	> 100	> 100	> 100	55.1	82.8	> 100	–	> 100	–	93.8
